Earlier results as cited in patent US20080113949A1, “Use of dipyridamole in combination with acetylsalicylic acid and an angiotensin II antagonist for stroke prevention” (priority 2003, published 2008).

Settings: clinical study ESPS-2; compared with aspirin

SMILES: OCCN(CCO)c1nc(N2CCCCC2)c2nc(N(CCO)CCO)nc(N3CCCCC3)c2n1 [dipyridamole, 2,6-bis(diethanolamino)-4,8-dipiperidino-pyrimido[5,4-d]pyrimidine]
- reduction of stroke risk: as effective as low-dose aspirin
